Results taken from US6403633B2, “Heteroaryl amidines, methylamidines and guanidines, and use thereof as protease inhibitors” (3-Dimensional Pharmaceuticals, Inc., priority 1998, dated 2002).
Counter-ions that a name gives are not always drawn. Like-named read-outs stand apart in the source and are kept apart here. One block for each molecule: values may come before it.

Tests used:
human kidney urokinase = target: T1, human kidney urokinase (Homo sapiens, UniProt P00749); assay: In vitro inhibition of purified enzymes, Ki determination: urokinase (uPA); assay type: biochemical
T1 construct: purchased Sigma U5004; host or cells: human kidney cells
Excerpt: (§1) Reagents: All buffer salts were obtained from Sigma Chemical Company (St. Louis, Mo.), and were of the highest purity available. The enzyme substrates, N-benzoyl-Phe-Val-Arg-p-nitroanilide (Sigma B7632), N-benzoyl-Ile-Glu-Gly-Arg-p-nitroanilide hydrochloride (Sigma B2291), N-p-tosyl-Gly-Pro-Lys-p-nitroanilide (Sigma T6140), N-succinyl-Ala-Ala-Pro-Phe-p-nitroanilide (Sigma S7388) and N-CBZ-Val-Gly-Arg-p-nitroanilide (Sigma C7271) were obtained from Sigma.
Human α-thrombin, human factor Xa and human plasmin were obtained from Enzyme Research Laboratories (South Bend, Ind.). Bovine α-chymotrypsin (Sigma C4129), bovine trypsin (Sigma T8642) and human kidney cell urokinase (Sigma U5004) were obtained from Sigma. Human leukocyte elastase was obtained from Elastin Products (Pacific, Mo.). Ki Determinations: All assays are based on the ability of the test compound to inhibit the enzyme catalyzed hydrolysis of a peptide p-nitroanilide substrate. […] The final concentrations for each of the substrates is listed below. In general, substrate concentrations are lower than the experimentally determined value for Km. Test compounds are prepared as a 1.0 mg/ml solution in DMSO. Dilutions are prepared in DMSO yielding 8 final concentrations encompassing a 200 fold concentration range. Enzyme solutions are prepared at the concentrations listed below in assay buffer.
Data corresponding to less than 10% of the total substrate hydrolysis were used in the calculations. The ratio of the velocity (rate of change in absorbance as a function of time) for a sample containing no test compound is divided by the velocity of a sample containing test compound, and is plotted as a function of test compound concentration. The data are fit to a linear regression, and the value of the slope of the line calculated. The inverse of the slope is the experimentally determined Ki value. Thrombin: Thrombin activity was assessed as the ability to hydrolyze the substrate N-succinyl-Ala-Ala-Pro-Arg-p-nitroanilide. […] Final DMSO concentration was 4.3%. […] Factor X [FXa]: FXa activity was assessed as the ability to hydrolyze the substrate N-benzoyl-Ile-Glu-Gly-Arg-p-nitroanilide hydrochloride. […] Final DMSO concentration was 4.3%. Purified activated human Factor X was diluted into assay buffer to a concentration of 300 nM. […] Plasmin: Plasmin activity was assessed as the ability to hydrolyze the N-p-Tosyl-Gly-Pro-Lys-p-nitroanilide. […] Final DMSO concentration was 4.3%. […] Chymotrypsin: Chymotrypsin activity was assessed as the ability to hydrolyze N-succinyl-Ala-Ala-Pro-Phe-p-nitroanilide. […] Final DMSO concentration was 4.3%. […] Trypsin: Trypsin activity was assessed as the ability to hydrolyze N-benzoyl-Phe-Val-Arg-p-nitroanilide. […] Final DMSO concentration was 4.3%. […] Elastase: Elastase activity was assessed as the ability to hydrolyze N-succinyl-Ala-Ala-Pro-Val-p-nitroanilide. […] Final DMSO concentration was 4.3%. […] Urokinase: Urokinase activity was assessed as the ability to hydrolyze N-CBZ-Val-Gly-Arg-p-nitroanilide. […] Final DMSO concentration was 4.3%. […] Final reagent concentrations were: [Urokinase]=40 nM, and N-CBZ-Val-Gly-Arg-p-nitroanilide]=[…].

bovine trypsin = target: T2, bovine trypsin (Bos taurus, UniProt P00760); assay: In vitro inhibition of purified enzymes, Ki determination: trypsin; assay type: biochemical; settings: substrate N-benzoyl-Phe-Val-Arg-p-nitroanilide 13 μM, [Trypsin]=4 nM, pH 7.5, 37° C.
T2 construct: purchased Sigma T8642
T2 sequence (P00760 24-246): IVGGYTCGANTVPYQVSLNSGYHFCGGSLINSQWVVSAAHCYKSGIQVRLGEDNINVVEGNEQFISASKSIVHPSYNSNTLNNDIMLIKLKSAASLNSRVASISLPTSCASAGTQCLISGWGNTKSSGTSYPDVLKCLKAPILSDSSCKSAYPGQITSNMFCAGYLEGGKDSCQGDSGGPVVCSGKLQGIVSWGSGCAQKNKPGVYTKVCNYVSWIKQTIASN
Excerpt: as §1, with “Sigma. N-Succinyl-Ala-Ala-Pro-Arg-p-nitroanilide (BACHEM L-1720) and N-succinyl-Ala-Ala-Pro-Val-p-nitroanilide (BACHEM L-1770) were obtained from BACHEM (King of Prussia, Pa).” for “Sigma.”
Human α-thrombin, human factor Xa and human plasmin were obtained from Enzyme Research Laboratories (South Bend, Ind.). […] In general, substrate concentrations are lower than the experimentally determined value for Km. […]
In a typical Ki determination, into each well of a 96 well plate is pipetted 280 μL of substrate solution, 10 μL of test compound solution, and the plate allowed to thermally equilibrate at 37° C. in a Molecular Devices plate reader for >15 minutes. Reactions were initiated by the addition of a 10 μL aliquot of enzyme and the absorbance increase at 405 nm is recorded for 15 minutes. […] The data are fit to a linear regression, and the value of the slope of the line calculated. The inverse of the slope is the experimentally determined Ki value. […]

[1] = uPA, substrate N-CBZ-Val-Gly-Arg-p-nitroanilide, [Urokinase]=40 nM, pH 7.5, 37° C., one range stated for the listed compounds, read-out: Ki values for uPA

SMILES: CSc1sc(C(=N)N)cc1NC(=O)/C=C/c1ccccc1 [Example 227, 4-((2E)-3-Phenylprop-2-enoylamino)-5-methylthiothiophene-2-carboxamidine]
- Ki (human kidney urokinase; [1]): 16 to 3500 nM

SMILES: CSc1sc(C(=N)N)cc1C(=N)NCc1ccccc1 [Example 89, 4-{Imino[benzylamino]methyl}-5-methylthiothiophene-2-carboxamidine hydrochloride]
- Ki (human kidney urokinase; [1]): 16 to 3500 nM

SMILES: CSc1sc(C(=N)N)cc1-c1nc(-c2cc(C(C)(C)C)nn2Cc2ccccc2)cs1 [Example 143, 4-{4-[3-(tert-Butyl)-1-benzylpyrazol-5-yl](1,3-thiazol-2-yl)}-5-methylthiothiophene-2-carboxamidine]
- Ki (human kidney urokinase; [1]): 16 to 3500 nM

SMILES: COc1ccc(OC)c(-c2csc(-c3cc(C(=N)N)sc3SC)n2)c1 [Example 28, 4-[4-(2,5-Dimethoxyphenyl)(1,3-thiazol-2-yl)]-5-methylthiothiophene-2-carboxamidine hydrochloride]
- Ki (human kidney urokinase; [1]): 16 to 3500 nM

SMILES: CSc1sc(C(=N)N)cc1NC(=O)c1ccc(Oc2cc(Cl)cc(Cl)c2)o1 [Example 233]
- Ki (human kidney urokinase; [1]): 16 to 3500 nM

SMILES: CSc1sc(C(=N)N)cc1Nc1cccc([N+](=O)[O-])c1 [Example 213, 5-Methylthio-4-[(3-nitrophenyl)amino]thiophene-2-carboxamidine]
- Ki (human kidney urokinase; [1]): 16 to 3500 nM

SMILES: CSc1sc(C(=N)N)cc1NC(=O)COc1ccccc1 [Example 239, 5-Methylthio-4-(2-phenoxyacetylamino)thiophene-2-carboxamidine]
- Ki (human kidney urokinase; [1]): 16 to 3500 nM

SMILES: CSc1sc(C(=N)N)cc1NC(=O)c1ccc2ccccc2n1 [Example 235, 5-Methylthio-4-(2-quinolylcarbonylamino)thiophene-2-carboxamidine]
- Ki (human kidney urokinase; [1]): 16 to 3500 nM

SMILES: CSc1sc(C(=N)N)cc1Nc1ccc2ccccc2c1 [Example 208, 5-Methylthio-4-(2-naphthylamino)thiophene-2-carboxamidine]
- Ki (human kidney urokinase; [1]): 16 to 3500 nM

SMILES: CSc1sc(C(=N)N)cc1Oc1ccccc1 [Example 288, 5-Methylthio-4-phenoxythiophene-2-carboxamidine trifluoroacetate]
- Ki (human kidney urokinase): 16 to 3500 nM

SMILES: CSc1sc(C(=N)N)cc1-c1nc(-c2cccc(OCC(=O)O)c2)cs1 [Example 40, 2-{3-[2-(5-Amidino-2-methylthio-3-thienyl)-1,3-thiazol-4-yl]phenoxy}acetic acid]
- Ki (human kidney urokinase; [1]): 16 to 3500 nM

SMILES: CSc1sc(C(=N)N)cc1-c1nc(-c2cccc(OCC(=O)N3CCOCC3)c2)cs1 [Example 52, 5-Methylthio-4-{4-[3-(2-morpholin-4-yl-2-oxoethox)phenyl](1,3-thiazol-2-yl)}thiophene-2-carboxamidine trifluoroacetate]
- Ki (bovine trypsin): 474 nM

SMILES: CSc1sc(C(=N)N)cc1N(S(=O)(=O)c1ccc(Cl)cc1)S(=O)(=O)c1ccc(Cl)cc1 [Example 281, 4-{Bis[(4-chlorophenyl)sulfonyl]amino}-5-methylthiothiophene-2-carboxamidine]
- Ki (human kidney urokinase; [1]): 16 to 3500 nM

SMILES: CSc1sc(C(=N)N)cc1Nc1ncccn1 [Example 200, 5-Methylthio-4-(pyrimidin-2-ylamino)thiophene-2-carboxamidine hydrochloride]
- Ki (human kidney urokinase; [1]): 16 to 3500 nM

SMILES: C[S+]([O-])c1sc(C(=N)N)cc1-c1nc(-c2ccc(Cl)cc2)cs1 (stereo not shown) [Example 138, 4-[4-(4-Chlorophenyl)(1,3-thiazol-2-yl)]-5-(methylsulfinyl)thiophene-2-carboxamidine]
- Ki (human kidney urokinase; [1]): 16 to 3500 nM

More lines, now with the values ahead:

- Ki (human kidney urokinase; [1]): 16 to 3500 nM
SMILES: CSc1sc(C(=N)N)cc1-c1nc(-c2ccccc2)co1 [Example 84, 5-Methylthio-4-(4-phenyl(1,3-oxazol-2-yl))thiophene-2-carboxamidine hydrochloride]

- Ki (human kidney urokinase; [1]): 16 to 3500 nM
SMILES: CSc1sc(C(=N)N)cc1-c1ncc(-c2ccccc2)o1 [Example 79, 5-Methylthio-4-(5-phenyl(1,3-oxazol-2-yl))thiophene-2-carboxamidine hydrochloride]

- Ki (human kidney urokinase; [1]): 16 to 3500 nM
SMILES: COc1sc(C(=N)N)cc1-c1nc(-c2ccccc2)cs1 [Example 139, 5-Methoxy-4-(4-phenyl(1,3-thiazol-2-yl))thiophene-2-carboxamidine]

- Ki (human kidney urokinase; [1]): 16 to 3500 nM
SMILES: CSc1sc(C(=N)N)cc1NCc1ccccc1 [Example 220, 5-Methylthio-4-[benzylamino]thiophene-2-carboxamidine]

- Ki (bovine trypsin): 858 nM
SMILES: COc1cccc(-c2csc(-c3cc(C(=N)N)sc3SC)n2)c1 [Example 8, 4-[4-(3-Methoxyphenyl)(1,3-thiazol-2-yl)]-5-methylthiothiophene-2-carboxamidine hydrochloride]

- Ki (human kidney urokinase; [1]): 16 to 3500 nM
SMILES: CSc1sc(C(=N)N)cc1-c1nc(-c2ccccc2)c(-c2ccccc2)s1 [Example 131, 4-(4,5-Diphenyl(1,3-thiazol-2-yl))-5-methylthiothiophene-2-carboxamidine]

- Ki (human kidney urokinase; [1]): 16 to 3500 nM
SMILES: CSc1sc(C(=N)N)cc1Nc1nc(-c2ccccc2)cs1 [Example 204, 5-Methylthio-4-[(4-phenyl(1,3-thiazol-2-yl))amino]thiophene-2-carboxamidine]
